Test results taken from patent US20070128217A1 (priority 2003, published 2007).

Key:
[1] = system: antibodies in sera from SARS patients (sera 1a, 1b, 2, 6, 37, 62, London, SARS-yellow, SARS-green); type: binding, human; design: Binding of serum 6 to linear peptides of protein X1 of SARS-CoV Urbani / Binding of serum 37 to linear peptides of protein X1 of SARS-CoV Urbani / Binding of serum 6 to looped/cyclic peptide (PEPSCAN-ELISA) / Binding of serum 37 to looped/cyclic peptide (PEPSCAN-ELISA) / Binding of serum 37 to looped/cyclic peptides of protein X1 of SARS-CoV Urbani / Binding of serum 6 to linear peptides of protein X2 / Binding of serum 37 to linear peptides of protein X2 / Binding of serum 37 to looped/cyclic peptides of protein X2 of SARS-CoV Urbani / Binding of serum 6 to linear peptides of protein M of SARS-CoV Urbani / Binding of serum 37 to linear peptides of protein M of SARS-CoV Urbani / Binding of serum 6 to looped/cyclic peptides of protein M of SARS-CoV Urbani / Binding of serum 37 to looped/cyclic peptides of protein M of SARS-CoV Urbani / Binding of serum 6 to linear peptides of protein X3 of SARS-CoV Urbani / Binding of serum 37 to linear peptides of protein X3 of SARS-CoV Urbani / Binding of serum 37 to looped/cyclic peptides of protein X3 of SARS-CoV Urbani / Binding of serum 6 to linear peptides of protein X4 of SARS-CoV Urbani / Binding of serum 37 to linear peptides of protein X4 of SARS-CoV Urbani / Binding of serum 37 to looped/cyclic peptides of protein X4 of SARS-CoV Urbani / Binding of serum 6 to linear peptides of protein X5 of SARS-CoV Urbani / Binding of serum 37 to linear peptides of protein X5 of SARS-CoV Urbani / Binding of serum 37 to looped/cyclic peptides of protein X5 of SARS-CoV Urbani / Binding of serum 6 to linear peptides of protein N of SARS-CoV Urbani / Binding of serum 37 to linear peptides of protein N of SARS-CoV Urbani / Binding of serum 6 to linear peptide (PEPSCAN-ELISA) / Binding of serum 1a to looped/cyclic peptides of protein N of SARS-CoV Urbani / Binding of serum 1b to looped/cyclic peptides of protein N of SARS-CoV Urbani / Binding of serum 2 to looped/cyclic peptides of protein N of SARS-CoV Urbani / Binding of serum 6 to looped/cyclic peptides of protein N of SARS-CoV Urbani / Binding of serum 37 to looped/cyclic peptides of protein N of SARS-CoV Urbani / Binding of serum 62 to looped/cyclic peptides of protein N of SARS-CoV Urbani / Binding of serum London to looped/cyclic peptides of protein N of SARS-CoV Urbani / Binding of serum SARS-green to looped/cyclic peptides of protein N of SARS-CoV Urbani: unit not given here
[2] = system: control sera (pooled serum of ten healthy LUMC hospital workers; commercial negative donor pooled serum from the Dutch bloodbank); type: binding, human; design: Binding of Control serum LUMC to linear peptides / Binding of Control serum Blood-bank to linear peptides / Binding of Control serum LUMC to looped peptides / Binding of Control Serum Blood-Bank to Looped peptides / Binding of Control serum LUMC to linear peptides of the protein M of SARS-CoV Urbani / Binding of Control serum Blood-bank to linear peptides of the protein M of SARS-CoV Urbani / Binding of Control serum LUMC to looped peptides of the protein M of SARS-CoV Urbani / Binding of Control Serum Blood-Bank to Looped peptides of the protein M of SARS-CoV Urbani: unit not given here
[3] = system: rabbit serum obtained by immunizing a rabbit with the SARS-CoV strain Frankfurt 1; type: binding; design: Binding of a rabbit serum to linear peptides / Binding of a rabbit serum to looped peptides / Rabbit serum linear peptides / Rabbit serum looped peptides / Binding of a rabbit serum to linear peptides of protein N of SARS-CoV Urbani (Rabbit serum linear peptides) / Binding of a rabbit serum to looped/cyclic peptides of protein N of SARS-CoV Urbani (Rabbit serum looped peptides): unit not given here

NSVTDTIVVTEGDGI
0.3: Binding of serum 1b to looped/cyclic peptides of protein X1 of SARS-CoV Urbani [1] | Binding of serum SARS-green to looped/cyclic peptides of protein X1 of SARS-CoV Urbani [1] | Binding of serum SARS-yellow to looped/cyclic peptides of protein X1 of SARS-CoV Urbani [1] | Binding of Control serum Blood-bank to linear peptides [2]
0.6: Binding of serum 1a to linear peptides of protein X1 of SARS-CoV Urbani [1] | Binding of serum SARS-yellow to linear peptides of protein X1 of SARS-CoV Urbani [1]
0.1: Binding of a rabbit serum to linear peptides [3]
0.2: Binding of serum 2 to looped/cyclic peptides of protein X1 of SARS-CoV Urbani [1] | Binding of serum 6 to looped/cyclic peptides of protein X1 of SARS-CoV Urbani [1] | Binding of serum London to linear peptides of protein X1 of SARS-CoV Urbani [1] | Binding of serum London to looped/cyclic peptides of protein X1 of SARS-CoV Urbani [1] | Binding of serum SARS-green to linear peptides of protein X1 of SARS-CoV Urbani [1]
0.4: Binding of serum 1a to looped/cyclic peptides of protein X1 of SARS-CoV Urbani [1] | Binding of serum 2 to linear peptides of protein X1 of SARS-CoV Urbani [1] | Binding of serum 6 to linear peptides of protein X1 of SARS-CoV Urbani [1] | Binding of serum 37 to looped/cyclic peptides of protein X1 of SARS-CoV Urbani [1] | Binding of serum 62 to linear peptides of protein X1 of SARS-CoV Urbani [1] | Binding of serum 62 to looped/cyclic peptides of protein X1 of SARS-CoV Urbani [1] | Binding of Control Serum Blood-Bank to Looped peptides [2] | Binding of Control serum LUMC to linear peptides [2]
0.5: Binding of serum 1b to linear peptides of protein X1 of SARS-CoV Urbani [1] | Binding of serum 37 to linear peptides of protein X1 of SARS-CoV Urbani [1] | Binding of Control serum LUMC to looped peptides [2] | Binding of a rabbit serum to looped peptides [3]

NTRGNTYSTAWLCAL
0.5: Binding of serum 37 to looped/cyclic peptides of protein X5 of SARS-CoV Urbani [1] | Binding of serum SARS-yellow to linear peptides of protein X5 of SARS-CoV Urbani [1] | Binding of serum SARS-yellow to looped/cyclic peptides of protein X5 of SARS-CoV Urbani [1] | Binding of Control serum LUMC to looped peptides [2] | Rabbit serum looped peptides [3]
0.3: Binding of serum SARS-green to looped/cyclic peptides of protein X5 of SARS-CoV Urbani [1]
0.2: Binding of serum 1b to looped/cyclic peptides of protein X5 of SARS-CoV Urbani [1] | Binding of serum 6 to looped/cyclic peptides of protein X5 of SARS-CoV Urbani [1]
0.9: Binding of serum 1a to linear peptides of protein X5 of SARS-CoV Urbani [1]
0.4: Binding of serum 1a to looped/cyclic peptides of protein X5 of SARS-CoV Urbani [1] | Binding of serum 2 to looped/cyclic peptides of protein X5 of SARS-CoV Urbani [1] | Binding of Control Serum Blood-Bank to Looped peptides [2]
0.1: Binding of serum London to looped/cyclic peptides of protein X5 of SARS-CoV Urbani [1]
0.7: Binding of serum 6 to linear peptides of protein X5 of SARS-CoV Urbani [1] | Binding of serum 37 to linear peptides of protein X5 of SARS-CoV Urbani [1] | Binding of serum 62 to linear peptides of protein X5 of SARS-CoV Urbani [1] | Binding of serum 62 to looped/cyclic peptides of protein X5 of SARS-CoV Urbani [1] | Binding of serum London to linear peptides of protein X5 of SARS-CoV Urbani [1] | Binding of Control serum LUMC to linear peptides [2]
0.8: Binding of Control serum Blood-bank to linear peptides [2] | Rabbit serum linear peptides [3]
0.6: Binding of serum 1b to linear peptides of protein X5 of SARS-CoV Urbani [1] | Binding of serum 2 to linear peptides of protein X5 of SARS-CoV Urbani [1] | Binding of serum SARS-green to linear peptides of protein X5 of SARS-CoV Urbani [1]
